Reference: US9611281B2, “BODIPY derivatives and methods of synthesis and use thereof” (The Board of Regents of the University of Oklahoma, priority 2013, dated 2017)

Assays:
[1] = Optical properties (absorption, emission, extinction coefficient) of BDP635 and derivative SBDPiRs; format: physicochemical
[2] = Singlet oxygen generation, indirect method of DPBF photooxidation; conditions: DPBF photooxidation monitored at 410 nm
Experimental: (§1) Singlet oxygen generation and photostability: A singlet oxygen generation experiment on compound 53 using the indirect method of DPBF photooxidation was performed. There were strong similarities of the behavior of 53 towards DPBF with SBDPiR715. […] The photooxidation of DPBF was monitored by UV-vis spectrophotometer at 410 nm. […] Additionally, less than 30% of 53 photobleached under the harsh light illumination condition over a period of an hour, which is a strong evidence for photostability (FIG. 21).

[3] = Photostability (photobleaching under light illumination); format: physicochemical
Experimental: as §1

nude mice = test: In vivo optical imaging with Compound 53; set-up: species or system mouse; conditions: for in vivo fluorescence image: 2.5 μmol/kg i.p.
Experimental: Optical imaging was performed with an IVIS Spectrum small-animal in vivo imaging system (Caliper LS). The Living Image Software v3.0 (Caliper LS) was used to analyze images and measurements of fluorescent signals. Excitation and emission wavelengths of 720 nm and 760 nm, respectively, were used to acquire in vivo fluorescent images of Compound 53 (M.W=[…]). All images were attained using a 1-s exposure time and an f/stop of 1, with a sampling of multiple angles with animal under Isoflurane anaesthesia. Animals were injected with 2.5 μmol/kg (2 mg/kg) of 53 via i.p. administration.

[4] = system: BALB/c mice bearing colon-26 cells (mouse colon carcinoma cells); test: In vivo imaging with SBDPiR790; conditions: 2.5 μmol/kg i.p.
Experimental: Female Balb/c mice were purchased from NCI (Federick, Md.). Mice were housed and handled in the College of Pharmacy animal facility, University of Oklahoma Health Sciences Center, Oklahoma City, Okla. All animal experiments were approved by IACUC, University of Oklahoma Health Sciences Center (personal approval was offered). Injection solution of SBDPiR790 was prepared by solubilizing it in DMSO (4 mM), and then it was diluted with 1% Tween 80-5% dextrose solution (PBS). The solution was filtered through a 0.2 μm sterile syringe filter before i.p. injection.
BALB/c mice bearing colon-26 cells (mouse colon carcinoma cells) were used for this study. 6-8 week old Balb/c mice were shaved and depilated with hair removal cream (Nair) at the upper back. The mice were subcutaneously inoculated with colon 26 cells at the neck region with […] in 0.1 ml PBS solution. Tumors with 4-6 mm diameter size were made in a week. The in vivo Xtreme imaging system (Carestream Health, Inc.) was used in acquiring images as mice were kept under safe anaesthesia using Isoflurane. The instrumental conditions for the imaging were as follows: fluorescence mode with excitation 760 nm and emission 830 nm; exposure time 5 sec; F/stop: 2 and pixel 2×2. Images collected were then processed using the Carestream MI imaging software to equally adjusted minima and maxima scale.
All mice received 2.5 μmol/kg of SBDPiR790 (MW=636.11 g/mol) solution in PBS (0.2 ml) via i.p. injection. Images were taken at 0 (before), 15 minutes, 3, 6, and 24 hours postinjection. […] Particularly SBDPiR790 can be a practical alternative to the sole clinically approved NIR probe, ICG. The stability, and excellent photophysical properties of SBDPiR790 and its lipophilic character make it useful for varied applications including cancer diagnosis and neurological imaging taking advantage of its ability to cross the blood-brain barrier.

| Compound | λabs [1] [nm] | ε [1] | λflu [1] [nm] | other results |
| --- | --- | --- | --- | --- |
| COC(=O)c1ccc(C2=C3C=c4sc(-c5ccc(OC)cc5)cc4=[N+]3[B-](F)(F)n3c2cc2sc(-c4ccc(OC)cc4)cc23)cc1 [Compound 50, 2,8-Di(4-Methoxy-phenyl)-11-benzoic acid methyl ester-dithieno[2,3-b]-[3,2-g]-5,5-difluoro-5-bora-3a,4a-diaza-s-indacene] | – | – | – | fluorescence [1]: relatively low fluorescence; 0-0 absorption ([1]; in CHCl3): 685 nm; molar extinction coefficient ([1]; in CHCl3): 85 000 M^−1 cm^−1 |
| O=C(O)COc1ccc(-c2sc3c(c2Br)=[N+]2C(=C(C(F)(F)F)c4cc5sc(-c6ccc(OCC(=O)O)cc6)c(Br)c5n4[B-]2(F)F)C=3)cc1 [Compound 53, 3,7-Dibromo-2,8-di(4-Carboxymethoxy-phenyl)-11-trifluoromethyl-dithieno[2,3-b]-[3,2-g]-5,5-difluoro-5-bora-3a,4a-diaza-s-indacene] | – | – | – | singlet oxygen generation [2]: potent singlet oxygen generator; photostability compared with m-THPC [3]: relatively better than the clinically approved m-THPC (Foscan); fraction photobleached ([3]; harsh light illumination over a period of an hour): less than 30%; in vivo fluorescence signal (nude mice; 2.5 μmol/kg (2 mg/kg) i.p., ex 720 nm / em 760 nm): Bright fluorescence signals were detected; in vivo fluorescence image (nude mice; 5 and 10 minutes): two bright areas were observed in the mid-body; in vivo fluorescence image (nude mice; 3 hours and 6 hours): most skin showed bright emission; in vivo fluorescence image (nude mice; 12 hours): the intensity of skin was lower than the 3 hour and 6 hour images |
| COc1cc(-c2cc3c(s2)=CC2=C(C(F)(F)F)c4cc5sc(-c6cc(OC)c(OC)c(OC)c6)cc5n4[B-](F)(F)[N+]=32)cc(OC)c1OC [SBDPiR730, 2,8-Di(3,4,5-trimethoxyphenyl)-11-trifluoromethyl-dithieno[2,3-b]-[3,2-g]-5,5-difluoro-5-bora-3a,4a-diaza-s-indacene] | 728 | 140 000 M^−1 cm^−1 | 761 | – |
| COc1ccc(C=Cc2cc3c(s2)=CC2=C(C(F)(F)F)c4cc5sc(C=Cc6ccc(OC)cc6)cc5n4[B-](F)(F)[N+]=32)cc1 [SBDPiR790, 2,8-Di(4-(methoxy-phenyl)vinyl)-11-trifluoromethyl-dithieno[2,3-b]-[3,2-g]-5,5-difluoro-5-bora-3a,4a-diaza-s-indacene] | 786 | 85 000 M^−1 cm^−1 | – | in vivo fluorescence emission image ([4]; 15 minutes postinjection, ex 760 nm / em 830 nm): most of the dye still remained in the peritoneal cavity; in vivo fluorescence emission image ([4]; 3 hours postinjection): all skin area showed relatively bright emission with intense bright spots in mid-body; in vivo fluorescence emission image ([4]; 6 hours postinjection): an intense emission was observed in the tumor area; in vivo fluorescence emission image ([4]; 24 hours postinjection): brighter emission was observed at the tumor site than other body |
| F[B-]1(F)n2c(cc3sc(Oc4ccc(-c5ccccc5)cc4)cc32)C(C(F)(F)F)=C2C=c3sc(Oc4ccc(-c5ccccc5)cc4)cc3=[N+]21 [SBDPiR650, 2,8-Di(biphenyl-4-yloxy)-11-trifluoromethyl-dithieno[2,3-b]-[3,2-g]-5,5-difluoro-5-bora-3a,4a-diaza-s-indacene] | 649 | 83 000 M^−1 cm^−1 | 660 | – |
| F[B-]1(F)n2c(cc3sc(-c4cccs4)cc32)C(C(F)(F)F)=C2C=c3sc(-c4cccs4)cc3=[N+]21 [SBDPiR735, 2,8-Di(thiophenyl)-11-trifluoromethyl-dithieno[2,3-b]-[3,2-g]-5,5-difluoro-5-bora-3a,4a-diaza-s-indacene] | 733 | 125 000 M^−1 cm^−1 | 763 | – |

Now from value to compound, other results behind:

| λabs [1] [nm] | ε [1] | λflu [1] [nm] | Compound | other results |
| --- | --- | --- | --- | --- |
| 841 | – | – | CN(C)c1ccc(-c2cc3c(s2)=CC2=C(C(F)(F)F)c4cc5sc(-c6ccc(N(C)C)cc6)cc5n4[B-](F)(F)[N+]=32)cc1 [SBDPiR840, 2,8-Di(4-N,N,dimethylaminophenyl)-11-trifluoromethyl-dithieno[2,3-b]-[3,2-g]-5,5-difluoro-5-bora-3a,4a-diaza-s-indacene] | – |
| 649 | 118 000 M^−1 cm^−1 | 660 | COc1ccc(Oc2cc3c(s2)=CC2=C(C(F)(F)F)c4cc5sc(Oc6ccc(OC)cc6)cc5n4[B-](F)(F)[N+]=32)cc1 [SBDPiR650_OMe, 2,8-Di(4-methoxyphenoxy)-11-trifluoromethyl-dithieno[2,3-b]-[3,2-g]-5,5-difluoro-5-bora-3a,4a-diaza-s-indacene] | – |
| 694 | 105 000 M^−1 cm^−1 | 715 | F[B-]1(F)n2c(cc3sc(Sc4ccccc4)cc32)C(C(F)(F)F)=C2C=c3sc(Sc4ccccc4)cc3=[N+]21 [SBDPiR700, 2,8-Di(thiophenoxy)-11-trifluoromethyl-dithieno[2,3-b]-[3,2-g]-5,5-difluoro-5-bora-3a,4a-diaza-s-indacene] | – |
| 738 | 101 000 M^−1 cm^−1 | 763 | Oc1ccc(-c2cc3c(s2)=CC2=C(C(F)(F)F)c4cc5sc(-c6ccc(O)cc6)cc5n4[B-](F)(F)[N+]=32)cc1 [SBDPiR740, 2,8-Di(4-hydroxyphenyl)-11-trifluoromethyl-dithieno[2,3-b]-[3,2-g]-5,5-difluoro-5-bora-3a,4a-diaza-s-indacene] | – |
| 635 | – | 650 | 2,8-Di(bromo)-11-trifluoromethyl-dithieno[2,3-b]-[3,2-g]-5,5-difluoro-5-bora-3a,4a-dithio-s-indacene [BDP635] | – |
| 731 | 185 000 M^−1 cm^−1 | 755 | COc1ccc(-c2cc3c(s2)=CC2=C(C(F)(F)F)c4cc5sc(-c6ccc(OC)cc6)cc5n4[B-](F)(F)[N+]=32)cc1 [SBDPiR731, 2,8-Di(4-methoxyphenyl)-11-trifluoromethyl-dithieno[2,3-b]-[3,2-g]-5,5-difluoro-5-bora-3a,4a-diaza-s-indacene] | – |
| 753 | 110 000 M^−1 cm^−1 | 785 | F[B-]1(F)n2c(cc3sc(C=Cc4ccccc4)cc32)C(C(F)(F)F)=C2C=c3sc(C=Cc4ccccc4)cc3=[N+]21 [SBDPiR755, 2,8-Di(styryl)-11-trifluoromethyl-dithieno[2,3-b]-[3,2-g]-5,5-difluoro-5-bora-3a,4a-diaza-s-indacene] | – |
